Results published in patent publication US20240360177A1, “PEPTIDES WITH ANTIMICROBIAL ACTIVITIES” (priority 2021, published 2024).
≈ marks a conversion by molar mass, not a printed value. Starred links: 1 amine or outer side, 2 acyl side, 3 side chain; linkers in the order of their positions; H or OH if unused. Non-standard residues stand in square brackets, D forms with d. Residues, ends and D or L forms follow the SMILES beside them. *: point of attachment. Cyclohexanecarbonyl = O=C(C1CCCCC1)*; Morpholinoacetyl = O=C(CN1CCOCC1)*; NH(4-F-phenyl) = Fc1ccc(N*)cc1; CO = O=C([*:1])[*:2]; Ms = CS(=O)(=O)*

How the values were obtained:
Conditions in all cases: 24 h
C. parapsilosis = tested on: C. parapsilosis
C. auris = tested on: C. auris
C. dubliniensis = tested on: C. dubliniensis
C. tropicalis = tested on: C. tropicalis
C. krusei = tested on: C. krusei
C. albicans = tested on: C. albicans
C. glabrata = tested on: C. glabrata

Structure (SMILES) | MIC C. parapsilosis (C. parapsilosis) [µg/mL] | MIC C. auris (C. auris) [µg/mL] | MIC C. dubliniensis (C. dubliniensis) [µg/mL] | MIC C. tropicalis (C. tropicalis) [µg/mL] | MIC C. krusei (C. krusei) [µg/mL] | MIC C. albicans (C. albicans) [µg/mL] | MIC C. glabrata (C. glabrata) [µg/mL]
CS(=O)(=O)N[C@H](CCCNC(=N)N)C(=O)N[C@@H](CCCNC(=N)N)C(=O)N[C@H](CCCNC(=N)N)C(=O)N1CCC[C@H]1C(=O)N[C@H](CCCNC(=N)N)C(=O)N[C@@H](CCCNC(=N)N)C(=O)N[C@H](CCCNC(=N)N)C(=O)N1CCC[C@H]1C(=O)N[C@H](CCCNC(=N)N)C(=O)N[C@@H](CCCNC(=N)N)C(=O)N[C@H](CCCNC(=N)N)C(=O)N[C@@H](CCCNC(=N)N)C(=O)N1CCC[C@H]1C(=O)N[C@H](CCCNC(=N)N)C(=O)N[C@@H](CCCNC(=N)N)C(=O)N[C@H](CCCNC(=N)N)C(=O)N[C@@H](CCCNC(=N)N)C(N)=O [SEQ ID NO: 56, CH3SO2NH-rRr-P-rRr-P-rRrR-P-rRrR-NH2] (Ms-[dR]R[dR]P[dR]R[dR]P[dR]R[dR]RP[dR]R[dR]R-NH2) | 0.25 (≈ 0.0972 µM) | 0.5 (≈ 0.194 µM) | 0.5 (≈ 0.194 µM) | 0.5 (≈ 0.194 µM) | 1 (≈ 0.389 µM) | 0.5 (≈ 0.194 µM) | 0.5 (≈ 0.194 µM)
N=C(N)NCCC[C@H](NC(=O)[C@@H](CCCNC(=N)N)NC(=O)[C@H](CCCNC(=N)N)NC(=O)[C@@H](CCCNC(=N)N)NC(=O)[C@@H]1CCCN1C(=O)[C@H](CCCNC(=N)N)NC(=O)[C@@H](CCCNC(=N)N)NC(=O)[C@H](CCCNC(=N)N)NC(=O)[C@@H](CCCNC(=N)N)NC(=O)[C@@H]1CCCN1C(=O)[C@@H](CCCNC(=N)N)NC(=O)[C@H](CCCNC(=N)N)NC(=O)[C@@H](CCCNC(=N)N)NC(=O)[C@@H]1CCCN1C(=O)[C@@H](CCCNC(=N)N)NC(=O)[C@H](CCCNC(=N)N)NC(=O)[C@@H](CCCNC(=N)N)NC(=O)Nc1ccc(F)cc1)C(N)=O [SEQ ID NO: 57, 4-FPhNHC(O)NH-rRr-P-rRr-P-rRrR-P-rRrR-NH2] ({NH(4-F-phenyl)-CO}-[dR]R[dR]P[dR]R[dR]P[dR]R[dR]RP[dR]R[dR]R-NH2) | 0.5 (≈ 0.19 µM) | 0.5 (≈ 0.19 µM) | 0.5 (≈ 0.19 µM) | 0.5 (≈ 0.19 µM) | 1 (≈ 0.38 µM) | 0.5 (≈ 0.19 µM) | 0.5 (≈ 0.19 µM)
N=C(N)NCCC[C@H](NC(=O)[C@@H](CCCNC(=N)N)NC(=O)[C@H](CCCNC(=N)N)NC(=O)[C@@H](CCCNC(=N)N)NC(=O)[C@@H]1CCCN1C(=O)[C@H](CCCNC(=N)N)NC(=O)[C@@H](CCCNC(=N)N)NC(=O)[C@H](CCCNC(=N)N)NC(=O)[C@@H](CCCNC(=N)N)NC(=O)[C@@H]1CCCN1C(=O)[C@@H](CCCNC(=N)N)NC(=O)[C@H](CCCNC(=N)N)NC(=O)[C@@H](CCCNC(=N)N)NC(=O)[C@@H]1CCCN1C(=O)[C@@H](CCCNC(=N)N)NC(=O)[C@H](CCCNC(=N)N)NC(=O)[C@@H](CCCNC(=N)N)NC(=O)C1CCCCC1)C(N)=O [SEQ ID NO: 58, cHexC(O)NH-rRr-P-rRr-P-rRrR-P-rRrR-NH2] (Cyclohexanecarbonyl-[dR]R[dR]P[dR]R[dR]P[dR]R[dR]RP[dR]R[dR]R-NH2; N-terminus and C-terminus assumed) | 0.5 (≈ 0.192 µM) | 1 (≈ 0.384 µM) | 0.5 (≈ 0.192 µM) | 1 (≈ 0.384 µM) | 2 (≈ 0.768 µM) | 1 (≈ 0.384 µM) | 1 (≈ 0.384 µM)
N=C(N)NCCC[C@H](NC(=O)[C@@H](CCCNC(=N)N)NC(=O)[C@H](CCCNC(=N)N)NC(=O)[C@@H](CCCNC(=N)N)NC(=O)[C@@H]1CCCN1C(=O)[C@H](CCCNC(=N)N)NC(=O)[C@@H](CCCNC(=N)N)NC(=O)[C@H](CCCNC(=N)N)NC(=O)[C@@H](CCCNC(=N)N)NC(=O)[C@@H]1CCCN1C(=O)[C@@H](CCCNC(=N)N)NC(=O)[C@H](CCCNC(=N)N)NC(=O)[C@@H](CCCNC(=N)N)NC(=O)[C@@H]1CCCN1C(=O)[C@@H](CCCNC(=N)N)NC(=O)[C@H](CCCNC(=N)N)NC(=O)[C@@H](CCCNC(=N)N)NC(=O)CN1CCOCC1)C(N)=O [SEQ ID NO: 59, MorpholineCH2C(O)NH-rRr-P-rRr-P-rRrR-P-rRrR-NH2] (Morpholinoacetyl-[dR]R[dR]P[dR]R[dR]P[dR]R[dR]RP[dR]R[dR]R-NH2) | 0.5 (≈ 0.191 µM) | 4 (≈ 1.53 µM) | 0.5 (≈ 0.191 µM) | 0.5 (≈ 0.191 µM) | 2 (≈ 0.763 µM) | 0.5 (≈ 0.191 µM) | 0.5 (≈ 0.191 µM)
N=C(N)NCCC[C@@H](N)C(=O)N[C@@H](CCCNC(=N)N)C(=O)N[C@H](CCCNC(=N)N)C(=O)N[C@@H](CCCNC(=N)N)C(=O)N1CCC[C@H]1C(=O)N[C@H](CCCNC(=N)N)C(=O)N[C@@H](CCCNC(=N)N)C(=O)N[C@H](CCCNC(=N)N)C(=O)N[C@@H](CCCNC(=N)N)C(=O)N1CCC[C@H]1C(=O)N[C@H](CCCNC(=N)N)C(=O)N[C@@H](CCCNC(=N)N)C(=O)N[C@H](CCCNC(=N)N)C(=O)N[C@@H](CCCNC(=N)N)C(N)=O [SEQ ID NO: 67, rRrR-P-rRrR-P-rRrR-NH2] (H-[dR]R[dR]RP[dR]R[dR]RP[dR]R[dR]R-NH2) | 0.25 (≈ 0.12 µM) | 4 (≈ 1.92 µM) | 0.25 (≈ 0.12 µM) | 0.5 (≈ 0.24 µM) | 0.5 (≈ 0.24 µM) | 0.25 (≈ 0.12 µM) | 0.5 (≈ 0.24 µM)
